For orientation: clearance means a measure of how efficiently the substance is removed, as volume per time. A high value points to efficient removal. As a reminder, the half-life is how long it takes for the measured level to halve.

This note sets out measurements from ChEMBL document CHEMBL6096675 (J Med Chem, 2025).

Bounds are passed on as bounds.

Data set [1] in a line: Plasma concentration in SCID mouse xenografted with human NCI-H838 cells at 10 mg/kg, iv measured after 48 hrs by LC-MS/MS analysis. Format: ADME, organism-based.
Data set [2] is described as follows: Clearance in mouse at 1 mg/kg, iv. It counts as ADME, organism-based. The conditions noted are these: in vivo.
Data set [3] is described as follows: Plasma stability in human plasma assessed as half life. It counts as ADME, cell-free.
A short description of data set [4]: Toxicity in SCID mouse assessed as toxicity signs at 50 mg/kg, iv twice a week. The conditions noted are these: in vivo. Format: organism-based.

For `Cc1ncsc1-c1ccc([C@H](CN2CCOCC2)NC(=O)[C@@H]2C[C@@H](O)CN2C(=O)[C@@H](n2cc([C@H]3CC[C@H](CN4CCC(c5ccc6c(c5)-n5c(nc(=O)c7c(Cl)cccc75)C65CCCCC5)CC4)CC3)nn2)C(C)(C)C)cc1`, in data set [1], the concentration at 48 h is 15 ng/mL. The same molecule registered a clearance in data set [2] of 9.2 mL/min/kg. Besides, the half-life in data set [3] was > 2 h. In data set [4], the Activity entry is reported as “Non-toxic”.
